Source: patent US20220257603A1, “COMBINATION THERAPY FOR TREATING MTAP-DEFICIENT TUMORS” (Board of Regents, The University of Texas System, priority 2019, published 2022)

Legend:
activated human T cells = conditions: incubation with MTA; cited from earlier work
mouse CD8 T cells = assay: Cytokine production by activated mouse CD8 T cells; assay type: cell-based
Procedure: MTA was added into culture for 72 h.
MTA was added into culture for 72 h. […] Therefore, a triple combination therapy with pemetrexed +A2BR antagonists+anti-PD-L1 (or anti-PD1) can be ultra-effective for MTAP-deficient malignancies through five different mechanisms: (1) direct cytotoxicity (from pemetrexed); (2) decrease of MTA levels (from pemetrexed cytotoxicity) and thus alleviation of inhibition of IFN signaling and T cell function; (3) increases in levels of tumor PD-L1 expression (from pemetrexed); (4) T cell activation by mitigating MTA inhibition (A2BR antagonists); and (5) further T cell activation by inhibiting checkpoint molecule PD-L1 (anti-PD-L1 or anti-PD1).

PD-L1 [1] = assay: PD-L1 expression in MTAP-deficient bladder cancer cell lines after pemetrexed; assay type: cell-based; conditions: FIG. 4A
Source text: (§1) For example, pemetrexed induced PD-L1 in MTAP-deficient bladder cancer cell lines (FIG. 4A). […] Based on this, FIG. 6 provides a proposed phase 2 trial schema for combination treatment with pemetrexed and an anti-PD-L1 therapy (e.g., avelumab).

PD-L1 [2] = assay: PD-L1 expression in vivo on MB49 tumors; conditions: FIG. 4C
Source text: as §1

MTAP-wild type tumor = assay: Tumor growth in xenograft mouse model, MTAP-wild type tumor; assay type: in vivo; conditions: FIG. 2D
Source text: (§2) Asterisk represents a patient that died of a car accident and thus was not evaluable.
(§3) Pemetrexed inhibited MTAP-deficient human tumor growth (FIG. 2C) but not MTAP-wild type tumor growth (FIG. 2D) in a xenograft mouse model.

[3] = tested on: MTAP knockdown human bladder cell lines; assay: Apoptosis (sub-G1 population) after MTAP knockdown in human bladder cancer cell lines; assay type: cell-based; conditions: FIG. 2B
Source text: as §2, §3

[4] = tested on: MTAP-deficient human tumor; assay: Tumor growth in xenograft mouse model, MTAP-deficient tumor; assay type: in vivo; conditions: FIG. 2C
Source text: as §2, §3

[5] = tested on: MTAP-deficient bladder cancer vs MTAP-wild type bladder cancer; assay: Response of bladder cancer patients to pemetrexed (RECIST); assay type: in vivo, human
Source text: as §2, §3

MB49 tumors = assay: Immune cells in MB49 tumors with in vivo pemetrexed treatment; conditions: FIG. 4B
Source text: as §1

PD-L1 [6] = assay: PD-L1 expression on tumor cells with anti-folate agents; conditions: both in vitro and in vivo
Source text: Many types of tumors contain homozygous deletion of the methylthioadenosine phosphorylase (MTAP) gene, which encodes an essential enzyme to catalyze methylthioadenosine (MTA) in the salvage pathway for adenosine synthesis.

[7] = tested on: MTAP-knockdown human tumors; assay: Tumor growth in xenograft mouse model, MTAP-knockdown tumor; assay type: in vivo; conditions: FIG. 2E
Source text: as §2, §3

[8] = tested on: MTAP-deficient vs. MTAP-wild type human bladder cancer cell lines; assay: Apoptosis (sub-G1 population) after pemetrexed in human bladder cancer cell lines; assay type: cell-based; conditions: FIG. 2A
Source text: as §2, §3

CSC[C@H]1O[C@@H](n2cnc3c(N)ncnc32)[C@H](O)[C@@H]1O [MTA, methylthioadenosine]
cytotoxicity to activated human T cells (activated human T cells): cytotoxic

CCCn1c(=O)[nH]c2nc(-c3ccc(S(=O)(=O)N4CCN(c5ccc(Cl)cc5)CC4)cc3)[nH]c2c1=O [PSB-603]
rescue of MTA-induced inhibition on the production of INF-γ (mouse CD8 T cells; PSB603+MTA, mouse CD8 T cells, FIG. 7A): partially rescue
rescue of MTA-induced inhibition on the production of TNF-α (mouse CD8 T cells; PSB603+MTA, mouse CD8 T cells, FIG. 7B): partially rescue

N#Cc1c(N)nc(SCC(N)=O)c(C#N)c1-c1ccc(OCC2CC2)cc1 [Bay60-6385]
production of INF-γ (mouse CD8 T cells; mouse CD8 T cells activated with anti-CD3/anti-CD28, 72 h, FIGS. 5A & 7A): mimic this inhibition
production of TNF-α (mouse CD8 T cells; mouse CD8 T cells activated with anti-CD3/anti-CD28, 72 h, FIGS. 5B & 7B): mimic this inhibition

Nc1nc2[nH]cc(CCc3ccc(C(=O)N[C@@H](CCC(=O)O)C(=O)O)cc3)c2c(=O)[nH]1 [Pemetrexed]
PD-L1 expression (PD-L1 [1]): induced PD-L1
PD-L1 expression in vivo (PD-L1 [2]): induced PD-L1
tumor growth (MTAP-wild type tumor): not
apoptosis with pemetrexed treatment [3]: significant apoptosis
tumor growth [4]: inhibited
response rate, MTAP-deficient vs MTAP-wild type bladder cancer patients ([5]; combined retrospective and prospective data, FIG. 2H): higher response rate
response rate, MTAP-deficient vs MTAP-wild type bladder cancer patients ([5]; prospective data, FIG. 2G): higher response rate
response rate, MTAP-deficient vs MTAP-wild type bladder cancer patients ([5]; retrospective data, FIG. 2F): higher response rate
CD4/8 T cells in tumors (MB49 tumors): increased
MDSCs in tumors (MB49 tumors): decreased
dendritic cells in tumors (MB49 tumors): increased
macrophages in tumors (MB49 tumors): increased
PD-L1 expression on tumor cells (PD-L1 [6]): induce PD-L1 expression
tumor growth [7]: inhibited growth
potency in inducing apoptosis (sub-G1 population), MTAP-deficient vs. MTAP-wild type [8]: at least 40 fold

CN(Cc1cnc2nc(N)nc(N)c2n1)c1ccc(C(=O)N[C@@H](CCC(=O)O)C(=O)O)cc1 [methotrexate, Methotrexate]
PD-L1 expression on tumor cells (PD-L1 [6]): induce PD-L1 expression
